≈ marks a conversion by molar mass, not a printed value.
Experiments:
Format in all cases: cell-based
[1] = tested on: Fluconazole Resistant Candida albicans clinical isolate; experiment: MIC (80% growth inhibition), broth microdilution NCCLS M27-A, fluconazole resistant Candida albicans; settings: fluconazole resistant Candida albicans; MIC = 80% growth inhibition
Experimental: The antimicrobial effect of N-dealkyl-trans-clopenthixol and N-dealkyl-trans-flupenthixol was studied by exposing cells to 0-8 μg/ml of the compounds in two-fold dilutions. Each experiment was repeated in triple duplicate. MIC values represent the mean values of two separate experiments.
Clinical Isolate of A Fluconazole Resistant Candida albicans from a Patient with Candidemia.
The isolates were subcultured for 24 h on Sabouraud glucose agar before susceptibility testing. Broth microdilution tests were performed according to NCCLS document M27-A (Ref: National Commitee for Clinical Laboratory Standards. (1997). Reference Method for Broth Dilution Antifungal Susceptibility Testing of Yeasts: Approved Standard M27-A. NCCLS, Wayne, Pa.)
Microtitre plates were read spectrophotometrically at 530 nm, after mixing the wells by pipetting to resuspend yeast sediments. The MIC was defined as the lowest drug dilution resulting in 80% growth inhibition.

[2] = tested on: HIV-1 strain HTLV-IIIB; experiment: Inhibition of HIV-1 replication in MT4 cells (MTT assay); settings: HIV-1 IIIB 0.005 MOI, six days
Experimental: The antiviral effect of N-dealkyl-trans-flupenthixol and N-dealkyl-trans-clopenthixol was studied by checkerboard studies exposing HIV infected cells to 0-3 μM of trans-clopenthixol. Each experiment was repeated in triple duplicate. MIC values represent the mean values of two separate experiments.
The HIV-1 strain HTLV-IIIB were propagated in H9 cells at 37° C., 5% CO2 using RPMI 1640 with 10% heat-inactivated foetal calf serum (FCS) and antibiotics (growth medium). Culture supernatant was filtered ([…]), aliquoted, and stored at −80° C. until use. The HIV-1 strain was obtained from NIH AIDS Research and Reference Program.
Compounds were examined for possible antiviral activity against strain IIIB of HIV-1 using MT4 cells as target cells. MT4 cells were incubated with virus (0.005 MOI) and growth medium containing the test dilutions of compound(s) for six days in parallel with virus-infected and uninfected control cultures without compound added. Expression of HIV in the cultures was indirectly quantified using the MTT assay as previously described. Compounds mediating less than 30% reduction of HIV expression were considered without biological activity. […] The 50% inhibitory concentration was determined by interpolation from the plots of percent inhibition versus concentration of compound. […]

[3] = tested on: resistant and susceptible clinical bacterial isolates; experiment: Susceptibility of resistant versus susceptible bacterial isolates (Example 3); settings: isolates of Tables 3a and 3b
Experimental: (§1) Cell growth was tested using the Minimal Inhibitory Concentration (MIC) susceptibility tests by use of the microdilution broth method in accordance to the NCCLS Guidelines (NCCLS Guidelines, Methods for Dilution Antimicrobial Susceptibility Tests for Bacteria That Grow Aerobically; Approved Standard, Sixth Edition, Volume 23; Number 2). The minimum inhibitory concentration (MIC), is defined ad the lowest concentration of drug which inhibits growth of the test organism, in the sense that no visible growth is detected (total inhibition of growth). In example 2 MIC of the compounds used on fungal microorganisms was determined from the IC90 measurements according to NCCLS Guidelines.
A log phase culture of bacteria was diluted with fresh pre-warmed Mueller-Hinton medium and adjusted to a defined OD at 600 nm in order to give a final concentration of 1×10^4-5 bacteria/ml medium. The bacterial culture was transferred to microtiter-plates and culture was added to each well. Drug was added to the bacterial culture in the wells as two-fold dilution series of drug in order to give final concentrations ranging from 0.03 to 128 μg/ml. Trays were incubated at 37° C. by shaking in a robot analyzer, PowerWavex, software KC^4′ Kebo.Lab, Copenhagen, for 16 h and optical densities were measured at 600 nm during the incubation time in order to record growth curves. […]

[4] = tested on: uninfected MT4 cells; experiment: Cytotoxic effect in uninfected MT4 cultures; settings: six days
Experimental: Compounds were examined for possible antiviral activity against strain IIIB of HIV-1 using MT4 cells as target cells. MT4 cells were incubated with virus (0.005 MOI) and growth medium containing the test dilutions of compound(s) for six days in parallel with virus-infected and uninfected control cultures without compound added. Expression of HIV in the cultures was indirectly quantified using the MTT assay as previously described. Compounds mediating less than 30% reduction of HIV expression were considered without biological activity. Compounds were tested in parallel for cytotoxic effect in uninfected MT4 cultures containing the test dilutions of compound as described above. Cultures for test of both antiviral activity and cytotoxic effect were set up in triple duplicates, 200 ml per culture in micro titre plates. A 30% inhibition of cell growth relative to control cultures was considered significant. The 50% inhibitory concentration was determined by interpolation from the plots of percent inhibition versus concentration of compound. CC50 is defined as the inhibitory concentration that reduces cellular growth or viability of uninfected cells by 50%.

[5] = tested on: Staphylococci, Micrococci. Including MRSA; experiment: MIC/IC90 broad spectrum, Staphylococci and Micrococci; settings: 30 strains, 20 resistant (20 MRSA)
Experimental: as §1
(§2) A log phase culture of bacteria was diluted with fresh pre-warmed Mueller-Hinton medium and adjusted to a defined OD at 600 nm in order to give a final concentration of 1×10^4-5 bacteria/ml medium. The bacterial culture was transferred to microtiter-plates and culture was added to each well. Drug was added to the bacterial culture in the wells as two-fold dilution series of drug in order to give final concentrations ranging from 0.03 to 128 μg/ml. Trays were incubated at 37° C. by shaking in a robot analyzer, PowerWavex, software KC^4′ Kebo.Lab, Copenhagen, for 16 h and optical densities were measured at 600 nm during the incubation time in order to record growth curves. Wells containing bacterial culture without drug were used as controls to ensure correct inoculum size and bacterial growth during the incubation. Cultures were tested in order to detect contaminations. Each experiment was repeated in triplicate. MIC values represent the mean values of two separate triplicate experiments. Intra- and interassay variation was <5%.
(§3) Inhibition 90 (IC90) is defined as: OD responding a 90% growth inhibition.
A broad spectrum of bacteria were cultured and assayed as described above for susceptibility towards N-dealkyl-clopenthixol.

[6] = tested on: Enterococcus faecalis resistant clinical isolates; experiment: MIC/IC90, resistant clinical isolates of Enterococcus faecalis
Experimental: as §1, §2, §3
Clinically relevant isolates were cultured and assayed as described above.

[7] = Enterococcus faecalis 10, BLR, CR

Clc1ccc2c(c1)/C(=C/CCN1CCNCC1)c1ccccc1S2 [N-dealkyl-trans-clopenthixol, trans-1-(3-(2-chloro-thioxanthen-9-ylidene)propyl)piperazine]
MIC [1]: 3 µg/mL (≈ 8.41 µM)
EC50 [2]: 2 µM
difference in susceptibility between resistant and susceptible isolates [3]: No difference in susceptibility
CC50 [4]: > 3 µM
IC90 (mean) [5]: 0.5 µg/mL (≈ 1.4 µM)
MIC (mean) [5]: 1 µg/mL (≈ 2.8 µM)
MIC range [5]: 0.5 to 2 µg/mL
IC90 ([6]; Enterococcus faecalis 1, VanA): 0.6 µg/mL (≈ 1.68 µM)
MIC ([6]; Enterococcus faecalis 1, VanA): 1 µg/mL (≈ 2.8 µM)
IC90 ([6]; Enterococcus faecalis 2, VanA): 0.6 µg/mL (≈ 1.68 µM)
MIC ([6]; Enterococcus faecalis 2, VanA): 1 µg/mL (≈ 2.8 µM)
MIC ([6]; Enterococcus faecalis 3, VanA): 1 µg/mL (≈ 2.8 µM)
IC90 ([6]; Enterococcus faecalis 4, VanB): 0.6 µg/mL (≈ 1.68 µM)
MIC ([6]; Enterococcus faecalis 4, VanB): 1 µg/mL (≈ 2.8 µM)
IC90 ([6]; Enterococcus faecalis 5, Van B): 1 µg/mL (≈ 2.8 µM)
MIC ([6]; Enterococcus faecalis 5, Van B): 2 µg/mL (≈ 5.6 µM)
IC90 ([6]; Enterococcus faecalis 6, VanB): 0.6 µg/mL (≈ 1.68 µM)
MIC ([6]; Enterococcus faecalis 6, VanB): 1 µg/mL (≈ 2.8 µM)
IC90 ([6]; Enterococcus faecalis 7, VanA): 0.6 µg/mL (≈ 1.68 µM)
MIC ([6]; Enterococcus faecalis 7, VanA): 1 µg/mL (≈ 2.8 µM)
IC90 ([6]; Enterococcus faecalis 8, HLAR): 0.6 µg/mL (≈ 1.68 µM)
MIC ([6]; Enterococcus faecalis 8, HLAR): 1 µg/mL (≈ 2.8 µM)
IC90 ([6]; Enterococcus faecalis 9, HLAR): 0.6 µg/mL (≈ 1.68 µM)
MIC ([6]; Enterococcus faecalis 9, HLAR): 1 µg/mL (≈ 2.8 µM)
IC90 [6, 7]: 0.6 µg/mL (≈ 1.68 µM)
MIC [6, 7]: 1 µg/mL (≈ 2.8 µM)
